Assays:
human TLR9 = human TLR9 (Homo sapiens (Human), UniProt Q9NR96); experiment: TLR9 inhibition reporter assay (HEK-Blue SEAP); details: read-out: TLR9 IC50; HEK-Blue human TLR9 cells, ODN2006 5 nM;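 further: SEAP driven by an IFN-β minimal promoter with NF-κB and AP-1 sites, read after 22 h, compounds dosed 0.05 nM–50 µM, inhibition scaled between agonist plus DMSO and reference-inhibitor wells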
human TLR7 = human TLR7 (Homo sapiens (Human), UniProt Q9NYK1); experiment: TLR7 inhibition reporter assay (HEK-Blue SEAP); format: cell-based; details: HEK-Blue human TLR7 cells, gardiquimod 7.5 μM
human TLR8 = human TLR8 (Homo sapiens (Human), UniProt Q9NR97); experiment: TLR8 inhibition reporter assay (HEK-Blue SEAP); details: read-out: TLR8 IC50; HEK-Blue human TLR8 cells, R848 15.9 μM;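 further: SEAP driven by IFN-β minimal promoter carrying NF-κB and AP-1 sites, compounds dosed 0.05 nM to 50 µM for 22 h, inhibition scaled between agonist-plus-DMSO and reference-inhibitor wells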
Chain of human TLR8 (Q9NR97 27-1041): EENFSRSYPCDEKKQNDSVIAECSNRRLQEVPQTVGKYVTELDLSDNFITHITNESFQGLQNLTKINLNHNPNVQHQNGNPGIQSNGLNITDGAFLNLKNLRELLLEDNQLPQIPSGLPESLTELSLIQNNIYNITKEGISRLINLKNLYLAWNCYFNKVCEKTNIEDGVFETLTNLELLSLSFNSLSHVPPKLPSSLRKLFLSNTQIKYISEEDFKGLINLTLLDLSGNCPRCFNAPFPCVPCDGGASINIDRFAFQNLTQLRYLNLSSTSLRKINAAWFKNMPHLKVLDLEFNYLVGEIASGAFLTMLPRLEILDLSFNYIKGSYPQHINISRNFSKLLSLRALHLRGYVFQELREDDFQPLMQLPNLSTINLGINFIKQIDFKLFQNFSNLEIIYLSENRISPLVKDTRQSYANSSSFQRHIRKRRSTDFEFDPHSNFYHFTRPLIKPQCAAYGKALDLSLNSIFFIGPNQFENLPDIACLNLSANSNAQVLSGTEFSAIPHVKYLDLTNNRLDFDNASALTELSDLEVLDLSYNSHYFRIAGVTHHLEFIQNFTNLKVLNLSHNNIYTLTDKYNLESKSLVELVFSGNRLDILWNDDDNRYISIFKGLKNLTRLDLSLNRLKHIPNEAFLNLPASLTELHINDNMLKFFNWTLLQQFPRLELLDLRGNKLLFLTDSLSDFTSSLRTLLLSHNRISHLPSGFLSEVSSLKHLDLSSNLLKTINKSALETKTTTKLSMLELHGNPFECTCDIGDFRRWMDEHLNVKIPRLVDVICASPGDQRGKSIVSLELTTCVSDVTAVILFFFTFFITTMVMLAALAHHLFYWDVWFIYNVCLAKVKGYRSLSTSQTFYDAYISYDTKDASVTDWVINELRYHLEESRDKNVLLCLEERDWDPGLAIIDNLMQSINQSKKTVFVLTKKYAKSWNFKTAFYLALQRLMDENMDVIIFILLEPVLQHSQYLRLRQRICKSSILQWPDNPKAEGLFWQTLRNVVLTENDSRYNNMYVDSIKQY

Chain of human TLR7 (Q9NYK1 27-1049): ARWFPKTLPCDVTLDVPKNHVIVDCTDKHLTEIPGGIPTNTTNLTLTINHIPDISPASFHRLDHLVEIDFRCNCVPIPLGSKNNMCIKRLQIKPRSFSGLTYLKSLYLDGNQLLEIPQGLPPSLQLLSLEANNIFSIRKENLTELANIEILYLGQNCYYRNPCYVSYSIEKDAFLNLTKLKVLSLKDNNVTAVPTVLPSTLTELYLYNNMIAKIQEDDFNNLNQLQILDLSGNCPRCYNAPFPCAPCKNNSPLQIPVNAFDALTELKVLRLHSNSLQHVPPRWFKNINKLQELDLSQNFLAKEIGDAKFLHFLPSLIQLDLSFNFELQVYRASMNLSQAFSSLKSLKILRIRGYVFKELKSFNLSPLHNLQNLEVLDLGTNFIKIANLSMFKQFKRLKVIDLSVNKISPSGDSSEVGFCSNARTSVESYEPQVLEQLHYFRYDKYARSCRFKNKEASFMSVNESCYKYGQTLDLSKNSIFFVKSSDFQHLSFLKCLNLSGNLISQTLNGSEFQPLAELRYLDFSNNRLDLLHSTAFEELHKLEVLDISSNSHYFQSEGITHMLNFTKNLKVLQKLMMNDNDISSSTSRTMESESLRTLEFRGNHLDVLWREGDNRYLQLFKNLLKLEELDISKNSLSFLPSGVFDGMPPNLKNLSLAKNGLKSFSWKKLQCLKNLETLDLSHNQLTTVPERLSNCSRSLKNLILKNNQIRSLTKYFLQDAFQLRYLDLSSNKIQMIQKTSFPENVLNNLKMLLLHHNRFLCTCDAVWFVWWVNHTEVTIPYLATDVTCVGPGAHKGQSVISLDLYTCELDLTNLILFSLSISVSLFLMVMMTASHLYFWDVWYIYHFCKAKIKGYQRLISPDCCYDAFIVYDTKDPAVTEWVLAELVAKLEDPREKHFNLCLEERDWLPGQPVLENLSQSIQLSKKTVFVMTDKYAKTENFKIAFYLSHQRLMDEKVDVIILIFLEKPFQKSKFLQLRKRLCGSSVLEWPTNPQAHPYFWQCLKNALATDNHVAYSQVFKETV
Chain of human TLR9 (Q9NR96 26-1032): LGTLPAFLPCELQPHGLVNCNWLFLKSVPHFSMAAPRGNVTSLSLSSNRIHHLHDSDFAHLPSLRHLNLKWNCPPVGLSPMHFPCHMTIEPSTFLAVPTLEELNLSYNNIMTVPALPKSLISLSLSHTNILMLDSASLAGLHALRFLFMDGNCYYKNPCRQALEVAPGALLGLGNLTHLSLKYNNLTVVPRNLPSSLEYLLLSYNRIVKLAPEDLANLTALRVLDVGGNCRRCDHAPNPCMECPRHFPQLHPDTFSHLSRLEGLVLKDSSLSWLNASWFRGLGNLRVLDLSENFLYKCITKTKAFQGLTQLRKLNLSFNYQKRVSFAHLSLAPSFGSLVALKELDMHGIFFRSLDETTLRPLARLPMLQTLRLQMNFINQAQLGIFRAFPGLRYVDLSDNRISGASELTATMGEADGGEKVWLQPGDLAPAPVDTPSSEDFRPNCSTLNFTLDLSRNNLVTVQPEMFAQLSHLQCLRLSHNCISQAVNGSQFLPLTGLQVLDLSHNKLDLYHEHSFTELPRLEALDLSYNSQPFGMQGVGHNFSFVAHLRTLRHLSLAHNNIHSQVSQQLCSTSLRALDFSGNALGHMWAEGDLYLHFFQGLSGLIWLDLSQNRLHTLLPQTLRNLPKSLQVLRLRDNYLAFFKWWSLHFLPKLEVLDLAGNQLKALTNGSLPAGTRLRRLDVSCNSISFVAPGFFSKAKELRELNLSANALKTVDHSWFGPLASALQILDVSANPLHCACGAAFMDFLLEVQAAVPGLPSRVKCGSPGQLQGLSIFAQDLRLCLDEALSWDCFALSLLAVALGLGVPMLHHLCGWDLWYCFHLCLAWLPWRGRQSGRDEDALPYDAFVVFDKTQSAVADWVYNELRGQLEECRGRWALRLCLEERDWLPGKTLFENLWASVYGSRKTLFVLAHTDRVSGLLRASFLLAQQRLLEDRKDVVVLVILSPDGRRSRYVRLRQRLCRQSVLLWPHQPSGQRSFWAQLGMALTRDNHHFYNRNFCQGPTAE

Row | Structure (SMILES) | IC50 (human TLR9) [nM] | IC50 (human TLR7) [nM] | IC50 (human TLR8) [nM]
1 | Cc1c(-c2[nH]c3ccc(N4CCC(N(C)CC(=O)N(C)C)CC4)nc3c2C(C)C)cn2ncnc2c1C [Example 997] | 13600 | 2.4 | 2.4
2 | Cc1c(-c2[nH]c3ccc(N4CC(NC(C)C)C4)nc3c2C(C)C)cn2ncnc2c1C [Example 999] | 10500 | 7.5 | 2.1
3 | COCCNC1CN(c2ccc3[nH]c(-c4cn5ncnc5c(C)c4C)c(C(C)C)c3n2)C1 [Example 1000] | 6440 | 18 | 3.2
4 | Cc1c(-c2[nH]c3ccc(NCCN)nc3c2C(C)C)cn2ncnc2c1C [Example 1001] | 11700 | 70 | 40
5 | Cc1c(-c2[nH]c3ccc(NCCNC(=O)CN(C)C)nc3c2C(C)C)cn2ncnc2c1C [Example 1002] | 1100 | 10 | 4.6
6 | Cc1c(-c2[nH]c3ccc(N4CC5(C4)CN(C(C)C)C5)nc3c2C(C)C)cn2ncnc2c1C [Example 1003] | 3160 | 1.8 | 3.7
7 | Cc1c(-c2[nH]c3ccc(N4CC5(CN(C(=O)CCN(C)C)C5)C4)nc3c2C(C)C)cn2ncnc2c1C [Example 1006] | 339 | 3.6 | 9.6
8 | Cc1c(-c2[nH]c3ccc(N4CC5(C4)CN(C4COC4)C5)nc3c2C(C)C)cn2ncnc2c1C [Example 1011] | 23700 | 11 | 22
9 | Cc1c(-c2[nH]c3ccc(N4CC5(C4)CN(C4CCOCC4)C5)nc3c2C(C)C)cn2ncnc2c1C [Example 1012] | 1690 | 0.59 | 1.4
10 | COc1cc(-c2[nH]c3ccc(N4CC5(CNC5)C4)nc3c2C(C)C)cn2ncnc12 [Example 1016] | 641 | 2.9 | 38
11 | COc1cc(-c2[nH]c3ccc(N4CC5(CN(C)C5)C4)nc3c2C(C)C)cn2ncnc12 [Example 1017] | 3300 | 1.3 | 16
12 | CCN1CC2(C1)CN(c1ccc3[nH]c(-c4cc(OC)c5ncnn5c4)c(C(C)C)c3n1)C2 [Example 1018] | 2780 | 1.7 | 8.9
13 | CCCN1CC2(C1)CN(c1ccc3[nH]c(-c4cc(OC)c5ncnn5c4)c(C(C)C)c3n1)C2 [Example 1019] | 3280 | 1.7 | 16
14 | COc1cc(-c2[nH]c3ccc(N4CC5(C4)CN(C(C)C)C5)nc3c2C(C)C)cn2ncnc12 [Example 1020] | 3860 | 1.8 | 17
15 | COc1cc(-c2[nH]c3ccc(N4CC5(CN(CC(C)(C)O)C5)C4)nc3c2C(C)C)cn2ncnc12 [Example 1021] | 5330 | 4.3 | 11
16 | Cc1c(-c2[nH]c3ccc(N4CCN(CCN(C)C)C(=O)C4)nc3c2C(C)C)cn2ncnc2c1C [Example 1032] | 25400 | 1210 | 196
17 | Cc1c(-c2[nH]c3ccc(N4CCN(C(=O)CN5CC6(COC6)C5)CC4)nc3c2C(C)C)cn2ncnc2c1C [Example 1033] | 22400 | 1090 | 974
18 | CNCCC(=O)N1C[C@H](C)N(c2ccc3[nH]c(-c4cn5ncnc5c(C)c4C)c(C(C)C)c3n2)C[C@H]1C [Example 1034] | 26600 | 1400 | > 3120
19 | CC(C)c1c(-c2cn(C)c3ncccc23)[nH]c2ccc(C3CCC(N4CC5(COC5)C4)CC3)nc12 (stereo not drawn) [Example 1036] | 1930 | 1.3 | 2.7
20 | COc1cc(-c2[nH]c3ccc(C4CCC(N5CC6(COC6)C5)CC4)nc3c2C(C)C)cn2ncnc12 (stereo not drawn) [Example 1037] | 1610 | 3.1 | 6.2
21 | CCN(C1CCC(c2ccc3[nH]c(-c4cn5ncnc5c(C)c4C)c(C(C)C)c3n2)CC1)C1COC1 (stereo not drawn) [Example 1038] | 1910 | 0.98 | 1.3
22 | CCN(C1CCC(c2ccc3[nH]c(-c4cn5ncnc5c(C)c4C)c(C(C)C)c3n2)CC1)C1COC1 (stereo not drawn) [Example 1039] | 3070 | 7.2 | 6.4
23 | COC1CN(C2CCC(c3ccc4[nH]c(-c5cn6ncnc6c(C)c5C)c(C(C)C)c4n3)CC2)C1 (stereo not drawn) [Example 1042] | 3320 | 2.2 | 3.3
24 | Cc1c(-c2[nH]c3ccc(C4CCC(NC5CCS(=O)(=O)CC5)CC4)nc3c2C(C)C)cn2ncnc2c1C (stereo not drawn) [Example 1043] | 1750 | 2.1 | 1.6
25 | COC1CN(C2CCC(c3ccc4[nH]c(-c5cn6ncnc6c(C)c5C)c(C(C)C)c4n3)CC2)C1 (stereo not drawn) [Example 1045] | 3240 | 4.8 | 3.6

Results, then the compound that gave them:

Row | IC50 (human TLR9) [nM] | IC50 (human TLR7) [nM] | IC50 (human TLR8) [nM] | Structure (SMILES)
26 | 20000 | 1.9 | 0.44 | Cc1c(-c2[nH]c3ccc(N4CCC(N(C)CCS(C)(=O)=O)CC4)nc3c2C(C)C)cn2ncnc2c1C [Example 998]
27 | 2790 | 2.1 | 1.3 | Cc1c(-c2[nH]c3ccc(N4CC5(CN(CC(C)(C)O)C5)C4)nc3c2C(C)C)cn2ncnc2c1C [Example 1004]
28 | 1660 | 4.4 | 7.4 | Cc1c(-c2[nH]c3ccc(N4CC5(CN(CCC(N)=O)C5)C4)nc3c2C(C)C)cn2ncnc2c1C [Example 1005]
29 | 2340 | 3.2 | 4 | Cc1c(-c2[nH]c3ccc(N4CC5(CN(CCCS(C)(=O)=O)C5)C4)nc3c2C(C)C)cn2ncnc2c1C [Example 1007]
30 | 13300 | 15 | 32 | Cc1c(-c2[nH]c3ccc(N4CC5(CN(CC#N)C5)C4)nc3c2C(C)C)cn2ncnc2c1C [Example 1008]
31 | 2660 | 4.5 | 7.7 | Cc1c(-c2[nH]c3ccc(N4CC5(CN(CC(C)C)C5)C4)nc3c2C(C)C)cn2ncnc2c1C [Example 1009]
32 | 2430 | 3.6 | 4.7 | Cc1c(-c2[nH]c3ccc(N4CC5(CN(CC(C)(C)C)C5)C4)nc3c2C(C)C)cn2ncnc2c1C [Example 1010]
33 | 7680 | 11 | 9.2 | COCCN1CC2(C1)CN(c1ccc3[nH]c(-c4cn5ncnc5c(C)c4C)c(C(C)C)c3n1)C2 [Example 1013]
34 | 21900 | 21 | 26 | Cc1c(-c2[nH]c3ccc(N4CC5(CN(CCC#N)C5)C4)nc3c2C(C)C)cn2ncnc2c1C [Example 1014]
35 | 2380 | 1.3 | 7.8 | CCCN1CC2(C1)CN(c1ccc3[nH]c(-c4cn5ncnc5c(C)c4C)c(C(C)C)c3n1)C2 [Example 1015]
36 | 4540 | 1.8 | 1.2 | Cc1c(-c2[nH]c3ccc(C4CC5(C4)CN(C4CCOCC4)C5)nc3c2C(C)C)cn2ncnc2c1C [Example 1024]
37 | 5860 | 3 | 0.86 | Cc1c(-c2[nH]c3ccc(C4CC5(C4)CN(CC4(C)COC4)C5)nc3c2C(C)C)cn2ncnc2c1C [Example 1025]
38 | 14500 | 4.5 | 6.3 | Cc1c(-c2[nH]c3ccc(C4CC5(C4)CN(CCS(C)(=O)=O)C5)nc3c2C(C)C)cn2ncnc2c1C [Example 1026]
39 | 17000 | 7.6 | 2.1 | Cc1c(-c2[nH]c3ccc(C4CC5(C4)CN(CC(C)(C)O)C5)nc3c2C(C)C)cn2ncnc2c1C [Example 1028]
40 | 8380 | 1.4 | 5 | Cc1c(-c2[nH]c3ccc(C4CC5(C4)CN(CCC(N)=O)C5)nc3c2C(C)C)cn2ncnc2c1C [Example 1029]
41 | 6280 | 3.1 | 1.9 | Cc1c(-c2[nH]c3ccc(C4CC5(C4)CN(CCCS(C)(=O)=O)C5)nc3c2C(C)C)cn2ncnc2c1C [Example 1030]
42 | 12700 | 18 | 2 | COCCN1CC2(CC(c3ccc4[nH]c(-c5cn6ncnc6c(C)c5C)c(C(C)C)c4n3)C2)C1 [Example 1031]
43 | 3670 | 1.7 | 21 | Cc1c(-c2[nH]c3ccc(C4CCC(O)(CN)CC4)nc3c2C(C)C)cn2ncnc2c1C (stereo not drawn) [Example 1035, 1-(aminomethyl)-4-(2-(7,8-dimethyl-[1,2,4]triazolo[1,5-a]pyridin-6-yl)-3-isopropyl-1H-pyrrolo[3,2-b]pyridin-5-yl)cyclohexan-1-ol]
44 | 1110 | 0.17 | 0.66 | Cc1c(-c2[nH]c3ccc(C4CCC(N5CC(C)(C)C5)CC4)nc3c2C(C)C)cn2ncnc2c1C (stereo not drawn) [Example 1040]
45 | 2420 | 0.49 | 0.85 | Cc1c(-c2[nH]c3ccc(C4CCC(N5CC(C)(O)C5)CC4)nc3c2C(C)C)cn2ncnc2c1C (stereo not drawn) [Example 1041]
46 | 3600 | 4.1 | 9.2 | Cc1c(-c2[nH]c3ccc(C4CCC(N5CC(C)(O)C5)CC4)nc3c2C(C)C)cn2ncnc2c1C (stereo not drawn) [Example 1044]
47 | 2500 | 0.64 | 2.4 | Cc1c(-c2[nH]c3ccc(C4CCC(N5CC(O)C5)CC4)nc3c2C(C)C)cn2ncnc2c1C (stereo not drawn) [Example 1046]
48 | 4490 | 1.3 | 3.5 | Cc1c(-c2[nH]c3ccc(C4CCC(N5CC(C(=O)N(C)C)C5)CC4)nc3c2C(C)C)cn2ncnc2c1C (stereo not drawn) [Example 1047]
49 | 9830 | 4.4 | 13 | Cc1c(-c2[nH]c3ccc(C4CCC(N(C)C(C)C)CC4)nc3c2C(C)C)cn2ncnc2c1C (stereo not drawn) [Example 1048]
50 | 2600 | 1.6 | 5.4 | Cc1c(-c2[nH]c3ccc(C4CCC(N5CC(O)C5)CC4)nc3c2C(C)C)cn2ncnc2c1C (stereo not drawn) [Example 1049]
